# Assays:
# [1] = tested on: cell lines containing multiple copies of the HER2 gene; test: Neutral comet assay in breast cancer cell lines; format: cell-based, human; settings: 24 h after treatment
# Experimental: (§1) Cell Lines and Transfections. Human breast cancer cell lines were obtained from ATCC and routinely tested for mycoplasma. The human cell lines, MDA-MB-453, SKBR3, and BT474 are HER2-amplified breast cancer cell lines. BT20 and MCF7 cells are non-amplified breast cancer cell lines. MCF-10A is a non-tumorigenic breast epithelial cell line. PEO1 and SKOV3 are human ovarian cancer cell lines with HER2 gene amplification.
# (§2) Cells were seeded in six-well plates at a density of 2-4×10^5 cells per well the day before transfection. Cells were transfected with 2 μg of HER2-targeted TFO or MIX24 using Oligofectamine (Invitrogen) or Dharmafect-1 (Dharmacon) transfection reagent. Transfection was performed as per manufacturer's instructions. siRNA directed against p53, XPD and non-target controls (ON-Target plus SMARTpool reagents; (Dharmacon) were transfected into BT474 cells using Dharmafect-1 transfection reagent (Dharmacon) according to the manufacturers instructions. Western blot analysis was used to confirm knockdown of protein.
# Comet Assay. […] Comets were visualized using an Axiovert 200 microscope and analyzed with Autocomet software. Approximately 100-200 comets were analyzed per experiment. Results were expressed as mean tail moment.
# [2] = tested on: PE01 and SKOV3 cells; test: Neutral comet assay in ovarian cancer cells; format: cell-based, human
# Experimental: (§3) Comet Assay. Neutral cornet assays were performed 24 h post TFO-transfection as per the manufacturers instructions (Trevigen) with the adjustment of 3.5×10^5 cells/ml for each single cell suspension and 30 minutes electrophoresis. Comets were visualized using an Axiovert 200 microscope and analyzed with Autocomet software. Approximately 100-200 comets were analyzed per experiment. Results were expressed as mean tail moment.
# [3] = tested on: BT474 cells; test: Apoptosis after XPD knockdown in BT474 cells (Western blot); format: cell-based, human; settings: siRNA XPD knockdown
# Experimental: as §2
# (§4) Western blotting. Whole cell lysates were prepared from floating and adherent cells using RIPA buffer according to standard protocols. Total protein (30-50 μg per sample) was resolved by SDS-PAGE. Proteins were detected by a standard immunoblot protocol using the following primary antibodies: cleaved PARP, cleaved caspase 3, γH2AX, XPD, p53, HER2, pHER2 ([…]), HER3, pHER3 (Y1289), HER4, pHER4 (Y1284), EGFR, pEGFR (Y1068), Chk1, pChk1(S345), pChk2 (T68), and Chk2 (Cell Signaling Technology); pH2AX (tyrosine 142; EMD Millipore); tubulin (clone B-512; Sigma), and GAPDH-HRP (Proteintech). Each experiment was repeated with independent sample preparation a minimum of three times, and representative western blots are shown.
# [4] = tested on: BT474 cells; test: Neutral comet assay in BT474 cells; format: cell-based, human; settings: 24 hours post-treatment
# Experimental: as §2, §3
# [5] = tested on: BT474 cells; test: Immunofluorescence of γH2AX and 53BP1 foci in BT474 cells; format: cell-based, human
# Experimental: (§5) Immunofluorescence. Cells were seeded onto UV-irradiated coverslips and were treated for 24 h with HER2-205, MIX24, or a mock transfection. Cells were processed 24 h post-transfection, fixed with 4% formaldehyde and then incubated with ice-cold 100% methanol for 20 minutes followed by a methanol and acetone solution (1:1) for 20 minutes each at −20° C. After washing with PBS, cells were blocked with blocking buffer (4% BSA, 0.2% Triton X-100 in PBS) for 30 minutes and then incubated overnight with the following primary antibodies: γH2AX (1:500; Cell Signaling or Millipore) and 53BP1 (1:100; Santa Cruz) in blocking buffer at 4° C. After three washes, cells were incubated with secondary antibodies Alexa 488 F(ab′)2 fragment goat anti-rabbit IgG or Alexa 568 F(ab′)2 fragment goat anti-mouse IgG (1:1000; Molecular Probes) for 1 h at room temperature. Cells were then mounted on microscope glass slides with anti-fade mounting media containing DAPI (Life Technologies), and pictures were taken with a Leica SP5 microscope. Immunofluorescence experiments were repeated for validation.
# [6] = tested on: BT474 cells; test: Flow cytometry of phosphorylated ATM; format: cell-based, human; settings: 24 h
# Experimental: Flow Cytometry. BT474 cells were collected 24 h following treatment with either MIX24 HER2-205. After washing with PBS, cells were incubated with 1% paraformaldehyde for 15 minutes on ice. Cells were then fixed with cold 70% ethanol at −20° C. for 2 h or kept for up to 2 weeks until further analysis. Cells were centrifuged and rinsed with PBS, blocked with PBST buffer (1% w/v bovine serum albumin and 0.2% v/v Triton X-100 in PBS) for 15 minutes on ice, followed by another PBS rinse. Cells were first incubated with anti-phospho-ATM (S1981, EMD Millipore) in PBST at 1:100 dilution for 1 h at room temperature. Cells were rinsed with PBST and incubated with anti-rabbit IgG Fab2 Alexa 488 (Molecular Probes) at 1:100 dilution at room temperature for 1 h, and then rinsed with PBST. Acquisition of labeled cells and analysis of data was completed using a flow cytometer (FACS Calibur) and FlowJo software respectively.
# [7] = tested on: HER2; test: HER2 gene expression by RT-PCR; format: cell-based, human; settings: non-amplified and amplified breast cancer cell lines
# Experimental: Gene Expression. RNA was extracted from snap-frozen cells using the RNeasy Kit (Qiagen) per the manufacturers protocol. cDNA synthesis was carried out with 10 μg of RNA via reverse transcription reactions and the High-Capacity cDNA Reverse Transcription Kit (ThermoFisher Scientific). cDNA (10 ng) was then combined with TaqMan Universal PCR master mix (20 μl) (Applied Biosystem) and primers specific to HER2 (HER2, Hs01001580_m1, ThermoFisher Scientific) or the internal control, β-actin (Hs99999903_m1, ThermoFisher Scientific). qRT-PCR was performed in 96-well optical plates in triplicate for each sample. Briefly, reactions were performed at 50° C. for 2 minutes, followed by 95° C. for 10 minutes. Amplification of the target or control gene was carried out with 40 cycles of the two-step reaction, which included 95° C. for 15 seconds and 1 minute at 60° C. β-actin expression levels were used to normalize the difference between cDNA levels in different samples. Relative expression levels were calculated using the 2(-Delta Delta C(T)) method.
# [8] = tested on: HER2; test: Western blot of total HER2 protein and phosphorylation levels; format: cell-based, human; settings: HER2-positive cells compared to control samples
# Experimental: as §4
# [9] = tested on: PE01 and SKOV3 cells; test: Apoptosis in ovarian cancer cells (Annexin V, cleaved PARP); format: cell-based, human; settings: Annexin V 48 h post-treatment
# Experimental: as §4
# (§6) Apoptosis analysis. Cells (2−4×10^5) were seeded in six-well plates 24 h prior to treatment with MIX24, HER2-1 or HER2-205 (2 μg). Post-treatment analysis was performed using the Annexin V-FITC/PI apoptosis detection kit (BD Pharmingen) according to the manufacturers protocol. Apoptotic frequency was calculated as the combined percentage of early and late apoptotic cells. Data analysis was performed using Flow-Jo software.
# [10] = tested on: HER2-positive cell lines; test: Annexin-V apoptosis analysis in breast cancer cell lines; format: cell-based, human; settings: 24 h post TFO-treatment
# Experimental: as §1, §6
# [11] = tested on: SKOV3 ovarian cancer xenografts; test: SKOV3 ovarian cancer subcutaneous xenograft model; settings: HER2-205 20 mg/kg vs cisplatin 10 mg/kg, IP
# Experimental: To establish an ovarian cancer model, female BALB/c athymic nude mice were injected subcutaneously in the flank with 5×10^6 SKOV3 cells suspended in 100 μl equal volume of media and Matrigel. Mice bearing a tumor of about 100 mm^3 in volume were randomly divided into three treatment groups: vehicle (PBS), n=5; HER2-targeted TFO, HER2-205, n=5; and cisplatin, n=7. […] Tumor volumes were monitored and tumor tripling times were calculated as described above.
# [12] = tested on: BT474 human breast cancer tumors; test: BT474 breast cancer subcutaneous xenograft model; format: in vivo, athymic nude mice; settings: for tumor growth relative to controls / tumor tripling time post-initial dose: 20 mg/kg IP, 3 doses over 7 days
# Experimental: Six to seven-week old female BALB/c athymic, ovariectomized nude mice (Harlan Sprague-Dawley) were implanted with 0.72 mg, 60-day release 17β-estradiol pellets (Innovative Research). […] Tumor volumes in each group were then monitored and mice were sacrificed when tumor volumes reached 1000 mm^3. Error bars represent standard error of the mean. Tumor tripling time was calculated as the time required for tumors to increase in volume […] over baseline (defined as tumor volume before administration of dose on first day of treatment). Harvested tumors were fixed in 10% neutral buffered formalin and processed by Yale Pathology Tissue Services for H&E, Caspase 3, HER2, and Ki67. Images were taken at 4× magnification.
# [13] = tested on: PE01 and SKOV3 cells; test: Monolayer growth survival assay in ovarian cancer cells; format: cell-based, human; settings: 72 h after treatment
# Experimental: Survival Assay. Cell survival seas assayed by visualization of monolayer growth. Briefly, cells were plated at a defined density in 6 or 12-well dishes and treated with either transfection reagent alone (mock), MIX24, or HER2-205 as previously described. Monolayers were visualized by staining cells with crystal violet 72 h post-treatment.
# [14] = tested on: Chk1; test: Western blot of DNA damage response protein phosphorylation; format: cell-based, human; settings: HER2-amplified vs normal copy number cells
# Experimental: as §4
# [15] = tested on: PE01 and SKOV3 cells; test: Immunofluorescence of γH2AX foci in ovarian cancer cells; format: cell-based, human; settings: 24 h
# Experimental: as §5
# [16] = 24 h after single dose 20 mg/kg
substance,measurement,setting,value
"HER2-205: TFO binding a polypurine sequence in the HER2 coding region, 5′-GAGGAGGAGTGGGAGAATGGGGGG-3′ (DNA GAGGAGGAGTGGGAGAATGGGGGG; DNA, backbone not given here)",DSBs as indicated by DNA tail moment,[1],significantly more DSBs
same,DNA tail moments,[2],increased
same,phosphorylation of Y142 in H2AX and activation of apoptosis,[3],requirement for XPD
same,DSBs as indicated by DNA tail moment,[4],"significantly, more DSBs"
same,"colocalization of γH2AX and 53BP1, percent of cells",[5]; 24 h,49%
same,γH2AX and 53BP1 foci compared to MIX24,[5]; 24 h post-treatment,substantially increased
same,pATM positive cells,[6],increase
same,HER2 gene expression,[7],not significantly affected
same,total and activated HER2 levels,[8],remain the same
same,apoptosis,[9],activated apoptosis
same,percentage of apoptotic cells (Annexin-V),[10],higher percentage of apoptotic cells than that with HER2-1
same,survival (tumors smaller than three times baseline) compared with cisplatin,[11]; 3 doses,substantial survival advantage
same,average tumor volume smaller than in cisplatin-treated mice,[11]; 3 doses once per week,49%
same,tumor growth relative to controls,[12],suppressed tumor growth to a significantly greater degree than the controls
same,tumor tripling time post-initial dose,[12],29 ± 5.7 days
same,proliferation by Ki67 staining in tumor sections,[12]; [16],decreased proliferation
same,tumor cell apoptosis (cleaved caspase 3) in tumor sections,[12]; [16],Tumor cell apoptosis
same,reduction in tumor volumes compared to controls,[12]; HER2-positive breast cancer xenografts,52%
same,cell viability (monolayer growth),[13],reduced cell viability
same,Chk1 phosphorylation at serine 345,[14],observed after HER2-205 treatment in the HER2-amplified cells and not in the cells with normal HER2 gene copy numbers
same,γH2AX foci,[15],increased
"HER2-5922-2: TFO targeting intron 2 of the HER2 gene, 5′-GGGAAAGAGGAGGGGGTGAGAGGAGTGGGG-3′ (triplex-forming oligonucleotide, chemistry not given here, further chemistry not given here)",DSBs as indicated by DNA tail moment,[4],"significantly, more DSBs"
"HER2-40118: TFO targeting intron 19 of the HER2 gene, 5′-GGGGGAAATAGGGAGGGTGGGG-3′ (triplex-forming oligonucleotide, chemistry not given here, further chemistry not given here)",DSBs as indicated by DNA tail moment,[4],"significantly, more DSBs"
"MIX24: control mixed-sequence oligonucleotide, 5′-AGTCAGTCAGTCAGTCAGTCAGTC-3′ (DNA AGTCAGTCAGTCAGTCAGTCAGTC; listed as DNA, chemistry not given here) [reference compound]",tumor growth relative to controls,[12],no impact
same,tumor tripling time post-initial dose,[12],16.3 ± 6.6 days
